The test system of assay [1] is TAA-induced cholestatic liver injury under SIRT1 inhibition. As to the kind of experiment: Effect of SIRT1 inhibition (EX527) on celastrol activity in TAA model (Example 4). Format: in vivo, C57BL/6 mice. The protocol:
A total of 24 male C57BL/6 mice were divided into four groups: blank group (n=6);
model group (n=6); treatment group (n=6); EX527 group (n=6).
Celastrol was dissolved in a solvent to obtain a solution of celastrol at a concentration of 2 mg/mL, wherein the solvent consisted of 1% DMSO, 2% Tween, and 97% water (v:v:v). For intragastrical administration, the dosage of celastrol was 10 mg/kg·d. TAA was dissolved in 0.9% NaCl solution to prepare a NaCl solution of TAA at a concentration of 60 mg/mL, and the dosage of TAA for intraperitoneal administration was 300 mg/kg. EX527 was dissolved in corn oil to prepare a corn oil solution of EX527 at a concentration of 2 mg/mL, and the dosage of EX527 for intraperitoneal administration was 10 mg/kg. d.
The EX527 group was simultaneously administered with the celastrol solution and the EX527 corn oil solution for 4 consecutive days. The treatment group was administrated with the celastrol solution and an equal dosage of corn oil for 4 consecutive days. At the same time, the blank group and the model group were administrated with equal dosages of solvent (1% DMSO, 2% Tween 80 and 97% water (v:v:v)) and corn oil, and the solvent was administrated for 4 consecutive days.
On the 4th day, the establishment of TAA model was performed. 1 Hour after administration, the mice in the model group, the treatment group and the EX527 group were intraperitoneally injected with TAA at a dosage of 300 mg/kg to induce cholestatic liver injury. 24 Hours after administration with TAA, the mice were sacrificed by CO2 anesthesia, and plasma samples and liver samples were collected. The eyeballs of the mice were taken for blood collection. The plasma samples were placed on ice for 1-2 hours, centrifuged at 4000 g for 5 minutes at 4° C., and the supernatants of plasma samples were taken to determine the plasma biochemical indicators, the levels of ALT, AST, and ALP.
At the same time, plasma samples were prepared: 10 μL of plasma sample was mixed with 190 μL of 67% acetonitrile (containing 5 μM internal standard chlorpropamide), centrifuged at 18000 g for 20 minutes at 4° C., and the supernatant was taken for sample injection. The liquid chromatography conditions were as follows: the volume of injection was 5 μL; the temperature of column was 45° C.; the flow rate of mobile phase was 0.3 mL/min; the gradient elution was that acetonitrile concentration changed from 2% to 98% during 16 minutes of operation, wherein the mobile phase (water/acetonitrile solution) contained 0.01% formic acid. The elution procedure was as follows: during 0-12th minute, the acetonitrile concentration changed from 2% to 98% at a constant rate; during 12-14th minute, the acetonitrile concentration was maintained at 98%; during 14-14.1th minute, the acetonitrile concentration changed from 98% to 2%; during 14.1-16th minute, the acetonitrile concentration was maintained at 2%. Mass spectrometry conditions were as follows: the temperature of dry gas was 350° C., the pressure of nebulizer was 35 psi, and the voltage of capillary was 3.5 kV.
Part of the collected mouse liver tissue was fixed overnight in formalin, and tissue sections were stained with hematoxylin and eosin (H&E).

Assay [2] deals with ANIT-induced cholestatic liver injury. As to the kind of experiment: ANIT-induced mouse cholestatic liver injury (Example 1). Format: in vivo, C57BL/6 mice. The protocol:
A total of 18 male C57BL/6 mice were divided into three groups: blank group (n=6); model group (n=6); treatment group (n=6).
Celastrol was dissolved in a solvent to obtain a celastrol solution at a concentration of 2 mg/mL, wherein the solvent consisted of 1% DMSO, 2% Tween 80, and 97% water (v:v:v). For intragastrical administration, the dosage of celastrol was 10 mg/kg·d. ANIT was dissolved in corn oil to obtain a corn oil solution of ANIT at a concentration of 15 mg/mL, and the dosage of ANIT for intragastrical administration was 75 mg/kg.
The treatment group was intragastrically administered with the celastrol solution at a dosage of 10 mg/kg·d for five consecutive days. At the same time, the blank group and the model group were intragastrically administered with the same dosage of a solvent, wherein the solvent consisted of 1% DMSO, 2% Tween 80 and 97% water (v:v:v), and the solvent was administrated for five consecutive days.
On the third day of administration, ANIT model was established. 4 Hours after administration with the solvent or celastrol solution, the model group and the treatment group were respectively intragastrically administered with the ANIT corn oil solution to induce cholestatic liver injury at a dosage of 75 mg/kg for single administration, and the blank group was fed with an equal dosage of corn oil. After the model was established, the treatment group was continuously administrated with the celastrol solution, and the blank group and the model group was continuously administrated with the same dosage of solvent.
48 Hours after the model was established, the mice were sacrificed by CO2 anesthesia, and mouse livers and plasma samples were taken. The eyeballs of the mice were taken for blood collection. The plasma samples were placed on ice for 1-2 hours, centrifuged at 4000 g for 5 minutes at 4° C., and the supernatant was taken to determine the plasma biochemical indicators, the levels of ALT, AST and ALP.
At the same time, plasma samples were prepared: 10 μL of plasma sample was taken, mixed with 190 μL of 67% (v/v) acetonitrile (containing 5 μM internal standard chlorpropamide), centrifuged at 18000 g for 20 minutes at 4° C., and the supernatant was taken for sample injection.
Liver samples were prepared: 100 mg of liver samples were mixed well with 1 mL of 50% (v/v) acetonitrile (containing 5 μM internal standard chlorpropamide), shaken for 20 minutes at room temperature, and then centrifuged at 18000 g for 20 minutes at 4° C. Thereafter, 200 μL of the supernatant was taken and added with 200 μL of pure acetonitrile, vortexed for 1 minute, centrifuged at 18000 g for 20 minutes at 4° C., and the supernatant was taken for sample injection.
The liquid chromatography conditions were as follows: the injection volume was 5 μL; the column temperature was 45° C.; the flow rate of mobile phase was 0.3 mL/min; the gradient elution was that acetonitrile concentration changed from 2% to 98% during 16 minutes of operation, wherein the mobile phase (water/acetonitrile solution) contained 0.01% formic acid. The elution procedure was as follows: during 0-12th minute, the acetonitrile concentration changed from 2% to 98% at a constant rate; during 12-14th minute, the acetonitrile concentration was maintained at 98%; during 14-14.1th minute, the acetonitrile concentration changed from 98% to 2%; during 14.1-16th minute, the acetonitrile concentration was maintained at 2%. Mass spectrometry conditions were as follows: the temperature of dry gas was 350° C., the pressure of nebulizer was 35 psi, and the voltage of capillary was 3.5 kV.
Part of the collected mouse liver tissue was fixed overnight in formalin and tissue sections were stained with hematoxylin and eosin (H&E).

The mark [3] stands for this setting: treatment group: celastrol 10 mg/kg·d, TAA model, P<0.05, FIG. 4E.
[4] abbreviates: celastrol 10 mg/kg·d intragastric 5 days, ANIT 75 mg/kg on day 3, 48 h after ANIT, n=6.
Where [5] appears, read: celastrol 10 mg/kg·d intragastric 5 days, ANIT 75 mg/kg, 48 h after ANIT, n=6.

Molecules are shown by their SMILES. “And” between values parts separate entries of the source, which are not always exact repeats. Equal values may be shown once.

Turning to `CC1=C(O)C(=O)C=C2C1=CC=C1[C@@]2(C)CC[C@@]2(C)[C@@H]3C[C@](C)(C(=O)O)CC[C@]3(C)CC[C@]12C` [celastrol, Celastrol], the “H&E staining: area of necrosis of liver cells” value in assay [1] (treatment group: celastrol 10 mg/kg·d intragastric + corn oil, TAA model, FIG. 4C) was “significantly reduced”. Moreover, in assay [1] (setting [3]), the “ALT level in plasma vs model group” value is “lower” and the “AST level in plasma vs model group” value is “lower”. The “Levels of bile acids in plasma vs TAA model group” value in assay [1] (ω-MCA, DCA, TβMCA/TαMCA, TCA, THDCA/TUDCA, TCDCA, TDCA, treatment group: celastrol 10 mg/kg·d, P<0.05, FIG. 4F) is “significantly lower”. Besides, the “Levels of bile acids in plasma vs ANIT model group” value in assay [2] (CA, DCA, TβMCA/TαMCA, TCA, THDCA/TUDCA, celastrol 10 mg/kg·d, FIG. 1D) is given as “significantly lower”. Moreover, in assay [2] (setting [4]), the “Liver weight of mouse when sacrificed” value is 1.01 g and 1.01 ± 0.05 g; the Liver weight/body weight is 4.66% and 4.66 ± 0.23 %. Also, in assay [2] (setting [5]), the “ALP in mouse plasma” value is on record as 27.3 ± 3.7 U/l, the “ALT in mouse plasma” value is 54.0 ± 36.4 U/l and the “AST in mouse plasma” value amounted to 72.0 ± 34.4 U/l. The “H&E staining of mouse liver tissue” value in assay [2] (celastrol 10 mg/kg·d intragastric, ANIT model, FIG. 1C) is recorded as “no obvious damage”. Besides, the “Levels of bile acids in liver vs ANIT model group” value in assay [2] (ω-MCA, β-MCA, CA, DCA, TβMCA/TαMCA, TCA, GCA, TLCA, celastrol 10 mg/kg·d, FIG. 1E) is listed as “significantly lower”.

(Values after patent publication US11607417B2, “Uses of celastrol in preventing and/or treating cholestatic liver disease and liver fibrosis” (KUNMING INSTITUTE OF BOTANY, THE CHINESE ACADEMY OF SCIENCES, priority 2017, dated 2023).)
